Where no end group is shown, it is not given here.

For data set [1], the system named is E. coli ATCC 25922 biofilm. The conditions noted are these: 5 × 10^5 CFU mL^−1, 0.2% glucose, 24 h, 37°C, crystal violet A595, three independent experiments. The method, then: Crystal violet staining was performed to determine the degree of biofilm formation by the E. coli 25922, S. aureus 25923, and ASEC strains. E. coli 25922 and S. aureus 25923 were cultured overnight in LB and TSB media with aeration at 180 rpm, respectively. Bacterial suspensions with 0.2% glucose (5 × 10^5 CFU mL^−1) were added to a 96-well plate (30096, surface treatment; SPL Life Sciences) and incubated for 24 h at 37°C. The supernatant was removed and fixed with 100% methanol. Next, 100 μL of crystal violet was added to the plate and incubated to dye the cells for 1 h, followed by rinsing the cells three times with distilled water (dH2O). After the crystal violet was dissolved with 95% ethanol, the mass of biofilm formation at 595 nm was measured using a Versa Max microplate reader (Molecular Devices). The inhibitory effect of PN5 against biofilm formed by E. coli 25922, S. aureus 25923, and three MDR E. coli strains (ASEC 2, 16, and 18) were determined. These cells were cultured overnight in LB and TSB media. Bacterial suspensions (5 × 10^5 CFU mL^−1) containing 0.2% glucose were added to 96-well plates and PN5 was serially diluted to a final concentration of 32 μM. The minimal biofilm inhibitory concentration (MBIC) was determined in three independent experiments. The percentage of biofilm formation was measured using the equation (A595 of treated biofilm/A595 of untreated biofilm) × 100. Similarly, the MDR ASEC 1 to 19 strains were cultured overnight in LB medium and seeded into 96-well plates with medium containing 0.2% glucose at 5 × 10^5 CFU mL^−1 of the bacterial suspension. Biofilm staining was performed as described above. SYTO 9 (6 μM) fluorescence in LIVE/DEAD BacLight was used to visualize the degree of biofilm formation. […] After 24 h, the culture supernatant of the peptide and bacteria was discarded, and the pellet was fixed with 100% methanol. A fluorescence mixture of SYTO 9 and propidium iodide was then added to each well, and the fluorescence was evaluated with an EVOS FL color imaging system (Thermo Fisher Scientific) with a 4× objective ([22]).

Data set [2] deals with RAW 264.7 cells. The data set can be described thus: MTT cell viability. The format is cell-based, mouse. The conditions noted are these: up to 200 μM, 24 h. The method, then: RAW 264.7 cells (mouse macrophage cells) were maintained in high-glucose Dulbecco’s modified Eagle medium (DMEM) (Welgene, Daegu, South Korea) supplemented with 10% fetal bovine serum (FBS) (Gibco) and 1% penicillin at 37°C in humidified 5% CO2. Cells (2 × 10^5 cells well^−1) were seeded into DMEM supplemented with 10% FBS medium in a 96-well plate. The MTT assay was performed after culturing the cells in 96-well plates at a density of 2 × 10^5 cells well^−1, followed by treatment with serially diluted PN5, magainin 2, and melittin. After 24 h, the medium was discarded, and 100 μL DMEM and 10% FBS medium containing 0.5 mg mL^−1 MTT were added to each well. After 4 h of incubation, the medium was discarded and dimethyl sulfoxide was added to each well to solubilize the formazan. The optical densities at 570 and 650 nm (OD570 and OD650, respectively) of the treated cells were compared to those of control cells. The hemolytic activity of the peptides was evaluated as the release of hemoglobin from an 8% mRBC suspension. A 100-μL aliquot of the 8% mRBC suspension was added to the wells of a 96-well plate, and 100 μL of peptide solution in phosphate-buffered saline (PBS) was added at a final peptide concentration of 200 μM. After incubation for 1 h at 37°C with shaking (50 rpm), the suspensions were centrifuged at 1,000 × g for 5 min. The absorbance of the supernatant was measured at 414 nm using a Versa Max microplate reader (Molecular Devices). As a control, no hemolysis and complete hemolysis were determined in PBS and 0.1% Triton X-100, respectively. The degree of hemolysis was calculated using the following equation as described in reference: %hemolysis=[(A414withpeptide-A414withPBS)/(A414with0.1%TritonX-100-A414 with PBS)] × 100

Consider FKFLARTGKFL-NH2 [PN5], for which the “MBIC50 (minimum inhibitory concentration resulting in at least 50% inhibition of biofilm formation)” value in data set [1] was 16 (21.22) μM. For the same substance, the “toxicity, MTT assay” value in data set [2] is recorded as “did not show toxicity”.

The values above are taken from PMC9603901, “Therapeutic Potential of Antimicrobial Peptide PN5 against Multidrug-Resistant E. coli and Anti-Inflammatory Activity in a Septic Mouse Model” (Microbiology Spectrum, 2022).
